Results: patent US10399948B2, “Negative allosteric modulators of metabotropic glutamate receptor 3” (Vanderbilt University, priority 2015, dated 2019)
Where two headings read alike, the source gives them in different places.

Key:
[1] = test system: group II mGlu receptors (mGlu2 and mGlu3); settings: cited from earlier work
rat mGlu2 = rat mGlu2 (Rattus norvegicus (Rat), UniProt P31421); test: mGlu2 Ca2+ flux assay; assay type: cell-based; settings: NAM, glutamate EC80; >30,000 = no measurable activity
rat mGlu5 = rat mGlu5 (Rattus norvegicus (Rat), UniProt P31424); test: mGlu5 Ca2+ flux assay; assay type: cell-based; settings: PAM; for EC50: glutamate EC20, >10,000 = no plateau, >30,000 = no measurable activity, read-out: rat mGlu5 EC50 or IC50; for activity at 30 µM: response at 30 μM test compound as percentage of maximal response to glutamate, read-out: rat mGlu5 Glu max (%)
Procedure: HEK 293A cells stably expressing rat mGlu5 were plated in black-walled, clear-bottomed, poly-D-lysine coated 384-well plates in 20 μL of assay medium (DMEM containing 10% dialyzed FBS, 20 mM HEPES, 100 units/mL penicillin/streptomycin plus 250 ng/mL Fungizone, and 1 mM sodium pyruvate) at a density of 20K cells/well. The cells were grown overnight at 37° C. in the presence of 5% CO2. The next day, medium was removed and the cells incubated with 20 μL of […] Fluo-4, AM prepared as a 2.3 mM stock in DMSO and mixed in a 1:1 ratio with 10% (w/v) pluronic acid F-127 and diluted in assay buffer (Hank's balanced salt solution, 20 mM HEPES, and 2.5 mM probenecid) for 45 minutes at 37° C. Dye was removed, 20 μL of assay buffer was added, and the plate was incubated for 5 minutes at room temperature.
Ca^2+ flux was measured using the Functional Drug Screening System (FDSS7000, Hamamatsu, Japan). After establishment of a fluorescence baseline for about 3 seconds, the compounds of the present invention were added to the cells, and the response in cells was measured. 2.3 minutes later an EC20 concentration of the mGlu5 receptor agonist glutamate was added to the cells, and the response of the cells was measured for 1.9 minutes; an EC80 concentration of agonist was added and readings taken for an additional 1.7 minutes. All test compounds were dissolved and diluted to a concentration of 10 mM in 100% DMSO. Compounds were then serially diluted 1:3 in DMSO into 10 point concentration response curves, transferred to daughter plates, and further diluted into assay buffer to a 2× stock. Calcium fluorescence measures were recorded as fold over basal fluorescence; raw data was then normalized to the maximal response to glutamate.
The raw data file containing all time points was used as the data source in the analysis template. This was saved by the FDSS as a tab-delimited text file. Data were normalized using a static ratio function (F/F0) for each measurement of the total 360 values per well divided by each well's initial value. Data were then reduced to peak amplitudes (Max−Initial Min) using a time range that starts approximately 3 seconds prior to the glutamate EC20/EC80 addition and continues for approximately 90-120 seconds. This is sufficient time to capture the peak amplitude of the cellular calcium response. Individual amplitudes were expressed as % EMax by multiplying each amplitude by 100 and then dividing the product by the mean of the amplitudes derived from the glutamate ECMax-treated wells. EC50 values for test compounds were generated by fitting the normalized values versus the log of the test compound concentration (in mol/L) using a 4 parameter logistic equation where none of the parameters were fixed. Each of the three values collected at each concentration of test compound were weighted evenly.

rat mGlu3 = rat mGlu3 (Rattus norvegicus (Rat), UniProt P31422); test: mGlu3 Ca2+ flux assay; assay type: cell-based; settings: for IC50: NAM, glutamate EC80, >10,000 = decrease without plateau, >30,000 = no measurable activity; for remaining activity at 30 µM: response at 30 μM test compound as percentage of maximal response to glutamate, read-out: rat mGlu3 Glu max (%)
[2] = test system: central mGlu2 and mGlu3 receptors; settings: in vivo; cited from earlier work
glioma stem cells (GSC) = settings: in vitro; cited from earlier work
C57Bl6/J mice = settings: FST; cited from earlier work
rat = settings: normal animals; cited from earlier work
[3] = test system: Aβ-induced neurodegeneration; settings: cited from earlier work
Helpless (H) mice = settings: cited from earlier work; for activity in the tail suspension test: Helpless (H) mice
mouse = settings: normal animals; cited from earlier work
[4] = test system: glioma stem cells (GSC) tumors; settings: compared with controls; cited from earlier work
mice = settings: cited from earlier work
schizophrenic patients = settings: compared to placebo, P<0.001 at week 4; cited from earlier work
[5] = test system: social isolation-reared mice; settings: cited from earlier work
[6] = test system: olfactory bulbectomized rats; settings: repeated administration for 14 days; cited from earlier work
[7] = cited from earlier work
[8] = in vivo; cited from earlier work

rat mGlu2, sequence (P31421 19-872): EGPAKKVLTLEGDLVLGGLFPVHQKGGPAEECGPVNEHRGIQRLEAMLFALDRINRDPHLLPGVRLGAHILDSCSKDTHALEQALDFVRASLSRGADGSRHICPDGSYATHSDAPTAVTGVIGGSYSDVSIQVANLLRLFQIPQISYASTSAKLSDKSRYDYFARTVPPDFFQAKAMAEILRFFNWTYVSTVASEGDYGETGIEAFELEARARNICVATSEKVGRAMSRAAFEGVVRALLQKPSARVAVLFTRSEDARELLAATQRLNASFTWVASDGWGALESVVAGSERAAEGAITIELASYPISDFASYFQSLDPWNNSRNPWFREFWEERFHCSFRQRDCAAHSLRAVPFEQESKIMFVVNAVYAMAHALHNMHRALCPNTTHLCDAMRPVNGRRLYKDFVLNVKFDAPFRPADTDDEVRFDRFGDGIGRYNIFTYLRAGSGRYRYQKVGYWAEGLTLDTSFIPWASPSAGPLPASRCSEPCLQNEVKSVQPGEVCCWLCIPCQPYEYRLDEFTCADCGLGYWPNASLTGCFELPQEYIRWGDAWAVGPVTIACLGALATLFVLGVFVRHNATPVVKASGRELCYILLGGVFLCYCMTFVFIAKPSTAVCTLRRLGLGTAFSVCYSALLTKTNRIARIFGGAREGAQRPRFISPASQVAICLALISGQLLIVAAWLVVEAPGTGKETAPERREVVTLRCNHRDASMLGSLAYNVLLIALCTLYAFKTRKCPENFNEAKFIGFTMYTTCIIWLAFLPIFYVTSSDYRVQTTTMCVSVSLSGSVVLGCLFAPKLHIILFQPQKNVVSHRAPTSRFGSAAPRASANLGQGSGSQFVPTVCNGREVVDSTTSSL
rat mGlu3, sequence (P31422 23-879): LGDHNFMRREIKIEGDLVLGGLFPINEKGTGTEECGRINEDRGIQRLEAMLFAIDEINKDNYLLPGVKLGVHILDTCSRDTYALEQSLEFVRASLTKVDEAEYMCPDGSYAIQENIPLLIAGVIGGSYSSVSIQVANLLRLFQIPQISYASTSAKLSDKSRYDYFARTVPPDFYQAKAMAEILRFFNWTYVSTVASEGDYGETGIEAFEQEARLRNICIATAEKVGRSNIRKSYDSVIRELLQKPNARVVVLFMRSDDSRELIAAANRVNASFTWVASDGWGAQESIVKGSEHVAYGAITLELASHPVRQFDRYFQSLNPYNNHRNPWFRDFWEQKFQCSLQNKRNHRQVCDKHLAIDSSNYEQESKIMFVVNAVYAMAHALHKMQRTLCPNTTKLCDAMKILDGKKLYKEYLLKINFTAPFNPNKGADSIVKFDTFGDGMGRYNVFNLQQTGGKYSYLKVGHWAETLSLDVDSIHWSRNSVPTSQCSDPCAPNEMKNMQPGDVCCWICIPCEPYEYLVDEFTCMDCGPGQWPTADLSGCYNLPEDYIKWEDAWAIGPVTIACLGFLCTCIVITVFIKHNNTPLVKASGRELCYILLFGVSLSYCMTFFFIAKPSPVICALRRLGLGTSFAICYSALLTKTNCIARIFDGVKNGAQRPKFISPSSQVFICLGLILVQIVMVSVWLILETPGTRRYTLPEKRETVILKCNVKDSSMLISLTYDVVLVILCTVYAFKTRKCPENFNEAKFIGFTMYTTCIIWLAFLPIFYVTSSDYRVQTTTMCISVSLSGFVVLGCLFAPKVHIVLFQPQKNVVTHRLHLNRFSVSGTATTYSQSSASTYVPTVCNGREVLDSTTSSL
rat mGlu5, sequence (P31424 21-1203): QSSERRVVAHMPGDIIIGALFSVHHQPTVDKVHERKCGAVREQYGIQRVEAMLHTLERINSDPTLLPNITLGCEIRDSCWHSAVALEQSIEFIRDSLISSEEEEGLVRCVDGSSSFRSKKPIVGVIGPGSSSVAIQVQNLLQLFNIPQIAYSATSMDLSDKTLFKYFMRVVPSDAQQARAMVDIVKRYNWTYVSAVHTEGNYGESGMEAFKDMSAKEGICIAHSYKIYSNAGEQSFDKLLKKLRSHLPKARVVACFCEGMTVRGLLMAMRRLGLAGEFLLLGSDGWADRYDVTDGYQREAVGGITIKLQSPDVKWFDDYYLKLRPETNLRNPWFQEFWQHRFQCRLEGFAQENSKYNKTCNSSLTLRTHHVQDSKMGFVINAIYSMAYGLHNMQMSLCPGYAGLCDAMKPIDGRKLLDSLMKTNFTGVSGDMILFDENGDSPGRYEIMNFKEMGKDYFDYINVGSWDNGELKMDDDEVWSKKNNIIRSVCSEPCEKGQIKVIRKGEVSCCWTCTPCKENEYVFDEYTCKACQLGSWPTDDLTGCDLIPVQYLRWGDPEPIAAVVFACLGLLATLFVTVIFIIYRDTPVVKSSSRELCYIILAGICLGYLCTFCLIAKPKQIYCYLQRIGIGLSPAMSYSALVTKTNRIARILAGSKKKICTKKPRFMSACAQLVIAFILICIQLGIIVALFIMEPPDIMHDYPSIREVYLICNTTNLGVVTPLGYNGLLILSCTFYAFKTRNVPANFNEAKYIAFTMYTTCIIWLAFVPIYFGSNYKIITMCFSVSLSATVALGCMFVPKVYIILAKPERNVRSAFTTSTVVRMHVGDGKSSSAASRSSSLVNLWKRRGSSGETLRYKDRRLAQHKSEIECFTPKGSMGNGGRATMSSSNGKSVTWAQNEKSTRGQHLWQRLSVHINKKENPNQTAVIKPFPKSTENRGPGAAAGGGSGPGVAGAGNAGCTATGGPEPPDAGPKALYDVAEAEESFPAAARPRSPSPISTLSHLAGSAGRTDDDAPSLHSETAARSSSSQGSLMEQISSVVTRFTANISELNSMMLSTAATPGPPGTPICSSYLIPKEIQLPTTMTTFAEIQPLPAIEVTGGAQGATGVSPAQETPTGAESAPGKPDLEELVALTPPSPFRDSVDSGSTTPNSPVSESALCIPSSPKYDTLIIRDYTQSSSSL

## CCCCCCCOC(=O)[C@@]1(F)[C@@H]2C[C@@H](OCc3ccc(Cl)c(Cl)c3)[C@@](N)(C(=O)O)[C@@H]21 [BCI-838]
[1]; once-daily oral dosing, brain concentration of active metabolite BCI-632
  duration of inhibition of group II mGlu receptors: 22 h
[1]; three months of treatment
  Dutch APP transgene-associated learning and memory impairment: reversed
  anxiolytic effects: anxiolytic effects
  levels of monomeric and oAβ peptides in the hippocampus and cortex: decreased
[1]; wild-type and Alzheimer's diseased mice, 3 months
  hippocampal progenitor cell proliferation: stimulated

## O=c1cc(OCCOc2ncccc2Cl)ccn1-c1ccc(F)cc1 [Compound 54, 4-(2-((3-chloropyridin-2-yl)oxy)ethoxy)-1-(4-fluorophenyl)pyridin-2(1H)-one]
Rat mGlu2
  IC50: > 30 µM
Rat mGlu5
  EC50: 7.82 µM
  activity at 30 µM: 94%
Rat mGlu3
  IC50: 0.443 µM
  remaining activity at 30 µM: 0.96%

## O=c1cc(OCCOc2ccc(Cl)cn2)ccn1-c1ccc(F)cc1 [Compound 55, 4-(2-((5-chloropyridin-2-yl)oxy)ethoxy)-1-(4-fluorophenyl)pyridin-2(1H)-one]
Rat mGlu2
  IC50: > 30 µM
Rat mGlu5
  EC50: > 10 µM
  activity at 30 µM: 25.2%
Rat mGlu3
  IC50: 0.729 µM
  remaining activity at 30 µM: 0.32%

## N#Cc1ccnc(OCCOc2ccn(-c3ccc(F)cc3)c(=O)c2)c1 [Compound 57, 2-(2-((1-(4-fluorophenyl)-2-oxo-1,2-dihydropyridin-4-yl)oxy)ethoxy)isonicotinonitrile]
Rat mGlu2
  IC50: > 30 µM
Rat mGlu5
  EC50: > 10 µM
  activity at 30 µM: 38.7%
Rat mGlu3
  IC50: 0.753 µM
  remaining activity at 30 µM: -0.4%

## N[C@](CC1c2ccccc2Oc2ccccc21)(C(=O)O)[C@H]1C[C@@H]1C(=O)O [LY341495]
[2]
  hypolocomotor effect of mGlu2/3 agonist LY379268: achieved the same result
Glioma stem cells (GSC)
  proliferation rates and proportion of cells in S phase: decreased in a time-dependent manner
C57Bl6/J mice
  immobility time: dose-dependently reduced
rat
  antidepressant-like effects: Antidepressant-like effects
[3]
  amplification of Aβ-induced neurodegeneration by LY566332: prevented
Helpless (H) mice
  activity in the tail suspension test: active
Helpless (H) mice; acute administration
  antidepressant effect in helpless mice: potent antidepressant effect
mouse
  antidepressant-like effects: Antidepressant-like effects
[4]
  growth rate and volume of tumors: reduced
mice
  marble-burying behavior: significantly reduce

## N[C@@]1(C(=O)O)CS(=O)(=O)[C@H]2[C@H](C(=O)O)[C@H]21 [LY404039]
Schizophrenic patients
  positive and negative symptoms of schizophrenia: statistically significant improvements

## CCS(=O)(=O)N(Cc1cccnc1)c1cccc(-c2ccc(C#N)cc2)c1 [LY566332]
[3]
  Aβ-induced neurodegeneration: amplified

## N[C@]1(C(=O)O)[C@H]2[C@@H](C[C@H]1OCc1ccc(Cl)c(Cl)c1)[C@]2(F)C(=O)O [MGS0039]
[5]
  increased immobility in the FST: reversed
rat
  antidepressant-like effects: Antidepressant-like effects
[6]
  hyperactivity in the open field test: attenuated
  learning deficit in the passive avoidance test: attenuated
[7]; learned helplessness test/paradigm
  antidepressant effects: antidepressant effects
[7]; treatment for 7 days
  number of escape failures: significantly reduced
mouse
  antidepressant-like effects: Antidepressant-like effects
[8]
  freezing behavior: significantly decreased
mice
  marble-burying behavior: reduced marble-burying behavior in a significant and dose dependent manner
  spontaneous locomotor activity: no significant change

## Cc1cc(-c2cccc(C3=Nc4cc(C)c(C(F)(F)F)cc4NC(=O)C3)c2)cc(C)n1 [RO4491533]
[2]
  hypolocomotor effect of mGlu2/3 agonist LY379268: reversed
C57Bl6/J mice
  immobility time: dose-dependently reduced
Helpless (H) mice
  activity in the tail suspension test: active

## CN1C(=O)CN=C(c2ccccc2)c2cc(Cl)ccc21 [diazepam]
[8]
  freezing behavior: significantly decreased

## CNCCC(Oc1ccc(C(F)(F)F)cc1)c1ccccc1 (centres unmarked) [fluoxetine]
Helpless (H) mice; chronic (21 days) treatment
  antidepressant effect in helpless mice: full antidepressant effect
